The text below walks through data of patent US20240308988A1, “Method For Controlling Diamide Resistant Pests and Compounds Therefor” (priority 2021, published 2024).

Molecules are shown by their SMILES.

Data set [1] has as its system Plutella xylostella (Diamond back moth) ryanodine receptor, containing the G4946E resistance mutation. The data set is described as follows: In vitro calcium fluorescence assay (Fluo-8 NW, FDSS) in human embryonic kidney cells expressing the ryanodine receptor. The settings on record: table, EC50 (compound)/EC50 (cyantraniliprole), G4946E RyR in HEK cells. It is filed as cell-based. How it is done: Human embryonic kidney cells expressing the Plutella xylostella (Diamond back moth) ryanodine receptor, containing the G4946E resistance mutation, are loaded with Fluo-8 No Wash (NW) calcium-sensitive dye which responds by fluorescence to a change in intracellular calcium (e.g. stimulated by activation of ryanodine receptor). Test compounds are added in 10 rates to a 384-well plate containing dye-loaded cells and the fluorescent signal is measured using the Hamamatsu FDSS (Functional Drug Screening system). Dose-response curves are plotted to estimate the EC50. EC50 are normalized against an in-assay reference standard (cyantraniliprole) to address inter-assay variability. The ratio for a given compound is then obtained by the following formula:
REC50=EC50 (compound)/EC50 (cyantraniliprole).

Data set [2] relates to Resistant Plutella xylostella R4 (carries the RyR mutation G4946E). Description: Resistant Plutella xylostella R4 (Diamond back moth) larvicide L1, feeding/contact, artificial diet in 24-well plates. The settings on record: for pest or weed control at 50 µg/mL: Plutella xylostella, 192 h, read-out: control of the resistant strain of Plutella xylostella R4. The data set is classed as in vivo. As for the experimental part:
Resistant Plutella xylostella R4 (Diamond back moth) larvicide L1, feeding/contact 24-well microtiter plates with artificial diet were treated with aqueous test solutions prepared from 10′000 ppm DMSO stock solutions by pipetting. After drying, around 30 Plutella eggs were pipetted through a plastic stencil onto a gel blotting paper and the plate was closed with it. The samples were assessed for mortality in comparison to untreated samples 8 days after infestation.
Chlorantraniliprole was used as standard and a resistance factor of 242 was obtained for this strain
Plutella xylostella resistant strain R4 originated in the lab in 2021 from crossing the R1 strain with a lab-reared susceptible P. xylostella strain (SUS). R4 can be reared and tested on artificial diet and also carries the RyR mutation G4946E conferring resistance to diamides. The strain is selected approximately every two weeks with chlorantraniliprole. The following compounds, according to the present invention, gave at least 80% control of the resistant strain of Plutella xylostella R4 at 50 ppm or below: P11, P18, P26, P31, P33, P34, P36, P38, P42, P43, P46, P49, P50, P52, P56, P58, P60, P61, P63, P64, P65, P66, P67, P73, P76, P84, P97, P99, P102, P105.

The test system of data set [3] is Resistant Plutella xylostella R1 (multi-resistant larvae having the G4946E resistance mutation). Description: Resistant Plutella xylostella R1 (Diamond back moth) larvicide L3, feeding/contact, sprayed Chinese cabbage leaves. It is filed as in vivo. The settings on record: for pest or weed control at 50 µg/mL: Plutella xylostella, 96 h, read-out: control of the resistant strain of Plutella xylostella R1. How it is done: Resistant Plutella xylostella R1 (Diamond back moth) larvicide L3, feeding/contact Chinese cabbage plants were sprayed with diluted test solutions in an application chamber. Cut off leaves were placed into petri dishes with wetted filter paper and infested 1 day after application with 10 L3 multi-resistant Plutella xylostella larvae having the G4946E resistance mutation.
Samples were assessed 4 days after infestation for mortality and growth regulation.
Chlorantraniliprole was used as standard and a resistance factor of 146 was obtained for this strain.
Plutella xylostella resistant strain R1 originally collected from Taiwan in 2012 that carries the RyR mutation G4946E conferring resistance to diamides. The strain is reared on cabbage plants (Brassica aleracea) and selected approximately every two weeks with chlorantraniliprole.

As usually defined, the melting point is the temperature of the solid-liquid transition. As to `NC(=O)c1cc(Br)cc(Cl)c1NC(=O)c1cc(Cn2cc(C(F)(F)F)nn2)nn1-c1ncccc1Cl`, the melting point was in the range of 135 to 140 °C. Same read-out and setting: the same measure for `NC(=O)c1cc(Cl)cc(Br)c1NC(=O)c1cc(Cn2cc(C(F)(F)F)nn2)nn1-c1ncccc1Cl`: more than 250 °C. Same read-out and setting: to `Cc1cc(I)cc(C(N)=O)c1NC(=O)c1cc(C(F)F)nn1-c1ncccc1Cl` belongs 155 to 160 °C; to `Cc1cc(Cl)cc(C(N)=O)c1NC(=O)c1cc(C2(F)CC2)nn1-c1ncccc1Cl`, 225 to 230 °C.

With `Cc1cc(Cl)cc(C(N)=O)c1NC(=O)c1cc(C[S+](C)[O-])nn1-c1ncccc1Cl` (stereo not drawn), the melting point lay within 125 to 130 °C. Same read-out and setting: the same measure for `Cc1cc(Cl)cc(C(N)=O)c1NC(=O)c1cc(Br)nn1-c1ncccn1`: 187 to 198 °C; for `Cc1cc(Cl)cc(C(N)=O)c1NC(=O)c1cc(CS(C)(=O)=O)nn1-c1ncccc1Cl`: 140 to 145 °C; for `COCc1cc(C(=O)Nc2c(C)cc(Cl)cc2C(N)=O)n(-c2ncccc2Cl)n1`: 225 to 230 °C. Consider `CNC(=O)c1cc(Cl)cc(C)c1NC(=O)c1cc(Br)nn1-c1ncccc1Cl` [Chlorantraniliprole, chlorantraniliprole, reference compound], for which, in data set [1] (secondary amide analogue), the “REC50 (Comparative compound)” value is on record as 0.35. Moreover, the resistance factor in data set [2] (strain R4, chlorantraniliprole used as standard) was 242; in data set [3] (strain R1, chlorantraniliprole used as standard), 146. On to `Cc1cc(C#N)cc(C(N)=O)c1NC(=O)c1cc(COCc2ccc(Cl)cc2)nn1-c1ncccc1Cl` [Compound P12, N-(2-carbamoyl-4-cyano-6-methyl-phenyl)-5-[(4-chlorophenyl)methoxymethyl]-2-(3-chloro-2-pyridyl)pyrazole-3-carboxamide], for which the melting point was 109 to 112 °C. As for `Cc1cc(Br)cc(C(N)=O)c1NC(=O)c1cc(C(F)(F)F)nn1-c1ncccc1Cl` [Compound P26, N-(4-bromo-2-carbamoyl-6-methyl-phenyl)-2-(3-chloro-2-pyridyl)-5-(trifluoromethyl)pyrazole-3-carboxamide], the “REC50 (Compound of the invention)” value in data set [1] is 0.19. Further, the pest or weed control at 50 µg/mL in data set [2] and in data set [3] was not below 80% throughout.

For `Cc1cc(C#N)cc(C(N)=O)c1NC(=O)c1cc(C(F)(F)F)nn1-c1ncccc1Cl` [Compound P31, N-(2-carbamoyl-4-cyano-6-methyl-phenyl)-2-(3-chloro-2-pyridyl)-5-(trifluoromethyl)pyrazole-3-carboxamide], the “REC50 (Compound of the invention)” value in data set [1] is recorded as 0.28. Also, the pest or weed control at 50 µg/mL in data set [2] and in data set [3] was not below 80% each time. In the case of `NC(=O)c1cc(Cl)cc(Cl)c1NC(=O)c1cc(Br)nn1-c1ncc(Cl)cc1Cl` [Compound P33, 5-bromo-N-(2-carbamoyl-4,6-dichloro-phenyl)-2-(3,5-dichloro-2-pyridyl) pyrazole-3-carboxamide], the “REC50 (Compound of the invention)” value in data set [1] is 0.31. The pest or weed control at 50 µg/mL in data set [2] and in data set [3] was not below 80% in each case.

As for `NC(=O)c1cc(Cl)cc(Br)c1NC(=O)c1cc(Br)nn1-c1ncccc1Cl` [Compound P34, 5-bromo-N-(2-bromo-6-carbamoyl-4-chloro-phenyl)-2-(3-chloro-2-pyridyl) pyrazole-3-carboxamide], the “REC50 (Compound of the invention)” value in data set [1] is recorded as 0.18. For the same compound, the pest or weed control at 50 µg/mL in data set [2] and in data set [3] was not below 80% in each case. In the case of `Cc1cc(Br)cc(C(N)=O)c1NC(=O)c1cc(Cn2cc(C(F)(F)F)nn2)nn1-c1ncccc1Cl` [Compound P35, N-(4-bromo-2-carbamoyl-6-methyl-phenyl)-2-(3-chloro-2-pyridyl)-5-[[4-(trifluoromethyl)triazol-1-yl]methyl] pyrazole-3-carboxamide], the melting point was in the range of 190 to 195 °C. Still for that read-out and setting: the same measure for `NC(=O)c1cc(Br)cc(Cl)c1NC(=O)c1cc(Cn2ncc(C(F)(F)F)n2)nn1-c1ncccc1Cl` [Compound P37, N-(4-bromo-2-carbamoyl-6-chloro-phenyl)-2-(3-chloro-2-pyridyl)-5-[[4-(trifluoromethyl)triazol-2-yl]methyl]pyrazole-3-carboxamide]: 185 to 190 °C; for `Cc1cc(Br)cc(C(N)=O)c1NC(=O)c1cc(I)nn1-c1ncccc1Cl` [Compound P39, N-(4-bromo-2-carbamoyl-6-methyl-phenyl)-2-(3-chloro-2-pyridyl)-5-iodo-pyrazole-3-carboxamide]: more than 250 °C; for `NC(=O)c1cc(Br)cc(F)c1NC(=O)c1cc(Cn2nnc(C(F)(F)F)n2)nn1-c1ncccc1Cl` [Compound P41, N-(4-bromo-2-carbamoyl-6-fluoro-phenyl)-2-(3-chloro-2-pyridyl)-5-[[5-(trifluoromethyl)tetrazol-2-yl]methyl]pyrazole-3-carboxamide]: 110 to 115 °C. For `Cc1cc(Cl)cc(C(N)=O)c1NC(=O)c1cc(Cn2nnc(-c3ccc(Br)cc3)n2)nn1-c1ncccc1Cl` [Compound P49, 5-[[5-(4-bromophenyl)tetrazol-2-yl]methyl]-N-(2-carbamoyl-4-chloro-6-methyl-phenyl)-2-(3-chloro-2-pyridyl)pyrazole-3-carboxamide], the pest or weed control at 50 µg/mL in data set [2] and in data set [3] was not below 80% throughout. As to `NC(=O)c1cc(Cl)cc(Cl)c1NC(=O)c1cc(I)nn1-c1ncccc1Cl` [Compound P50, N-(2-carbamoyl-4,6-dichloro-phenyl)-2-(3-chloro-2-pyridyl)-5-iodo-pyrazole-3-carboxamide], the pest or weed control at 50 µg/mL in data set [2] and in data set [3] was not below 80% each time. With `COc1cc(C(=O)Nc2c(Br)cc(Cl)cc2C(N)=O)n(-c2ncccc2Cl)n1` [Compound P55, N-(2-bromo-6-carbamoyl-4-chloro-phenyl)-2-(3-chloro-2-pyridyl)-5-methoxy-pyrazole-3-carboxamide], the melting point fell in the range of 205 to 210 °C. With `NC(=O)c1cc(Cl)cc(Cl)c1NC(=O)c1cc(Cn2nnc(-c3ccc(C(F)(F)F)cc3)n2)nn1-c1ncccc1Cl` [Compound P58, N-(2-carbamoyl-4,6-dichloro-phenyl)-2-(3-chloro-2-pyridyl)-5-[[5-[4-(trifluoromethyl)phenyl]tetrazol-2-yl]methyl]pyrazole-3-carboxamide], the pest or weed control at 50 µg/mL in data set [2] and in data set [3] was not below 80% each time.

As for `Cc1cc(I)cc(C(N)=O)c1NC(=O)c1cc(Br)nn1-c1ncccc1Cl` [Compound P63, 5-bromo-N-(2-carbamoyl-4-iodo-6-methyl-phenyl)-2-(3-chloro-2-pyridyl) pyrazole-3-carboxamide], in data set [1], the “REC50 (Compound of the invention)” value stood at 0.19. The pest or weed control at 50 µg/mL in data set [2] and in data set [3] was not below 80% each time.

Turning to `Cc1cc(C#N)cc(C(N)=O)c1NC(=O)c1cc(Cn2nnc(-c3ccc(C(F)(F)F)cc3)n2)nn1-c1ncccc1Cl` [Compound P67, N-(2-carbamoyl-4-cyano-6-methyl-phenyl)-2-(3-chloro-2-pyridyl)-5-[[5-[4-(trifluoromethyl)phenyl]tetrazol-2-yl]methyl]pyrazole-3-carboxamide], the “REC50 (Compound of the invention)” value in data set [1] is 0.63. In addition, the pest or weed control at 50 µg/mL in data set [2] and in data set [3] was not below 80% in each case. The compound `Cc1cc(Cl)cc(C(N)=O)c1NC(=O)c1cc(CC#N)nn1-c1ncccc1Cl` [Compound P70, N-(2-carbamoyl-4-chloro-6-methyl-phenyl)-2-(3-chloro-2-pyridyl)-5-(cyanomethyl)pyrazole-3-carboxamide] gave a melting point of 180 to 185 °C. Regarding `Cc1cc(Cl)cc(C(N)=O)c1NC(=O)c1cc(C2CC2)nn1-c1ncccc1Cl` [Compound P76, N-(2-carbamoyl-4-chloro-6-methyl-phenyl)-2-(3-chloro-2-pyridyl)-5-cyclopropyl-pyrazole-3-carboxamide], in data set [1], the “REC50 (Compound of the invention)” value came out at 0.42. Besides, the pest or weed control at 50 µg/mL in data set [2] and in data set [3] was not below 80% throughout.
